Results as given in the supplement of paper PMC10307832.

Assays:
Test in all cases: relative viability (nuclei count vs DMSO), 5 days (fraction); higher = more cells survive
Vismodegib + Vorinostat = compound: CS(=O)(=O)c1ccc(C(=O)Nc2ccc(Cl)c(-c3ccccn3)c2)c(Cl)c1 [Vismodegib] + O=C(CCCCCCC(=O)Nc1ccccc1)NO [Vorinostat] (partner 1 µM)
In short: (§1)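 Lung cancer cell lines in 1536-well plates were dosed by pin tool the day after seeding, either with one drug alone or with a fixed anchor-drug dose plus five library-drug doses (not always all listed) in √10 steps. After 5 days, cells were fixed and their nuclei stained in one step (final 0.05% Triton X-100, 1% formaldehyde, 1 ug/ml Hoechst), then counted on 4× images. Relative viability is the nuclei count in treated wells divided by that in vehicle wells. Values are medians of duplicate plates.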

VE-821 + Vorinostat = compound: CS(=O)(=O)c1ccc(-c2cnc(N)c(C(=O)Nc3ccccc3)n2)cc1 [VE-821] + O=C(CCCCCCC(=O)Nc1ccccc1)NO [Vorinostat] (partner 1 µM)
In short: as §1

VE-821 + Olaparib = compound: CS(=O)(=O)c1ccc(-c2cnc(N)c(C(=O)Nc3ccccc3)n2)cc1 [VE-821] + O=C(c1cc(Cc2n[nH]c(=O)c3ccccc23)ccc1F)N1CCN(C(=O)C2CC2)CC1 [Olaparib] (partner 8 µM)
In short: as §1

VE-821 + AZD7762 = compound: CS(=O)(=O)c1ccc(-c2cnc(N)c(C(=O)Nc3ccccc3)n2)cc1 [VE-821] + NC(=O)Nc1cc(-c2cccc(F)c2)sc1C(=O)N[C@H]1CCCNC1 [AZD7762] (partner 0.2 µM)
In short: as §1

Cell Line	relative viability (Vismodegib + Vorinostat; first compound 0.08 µM)	relative viability (Vismodegib + Vorinostat; first compound 0.253 µM)	relative viability (Vismodegib + Vorinostat; first compound 0.8 µM)	relative viability (Vismodegib + Vorinostat; first compound 2.53 µM)	relative viability (Vismodegib + Vorinostat; first compound 8 µM)	relative viability (VE-821 + Vorinostat; first compound 0.08 µM)	relative viability (VE-821 + Vorinostat; first compound 0.253 µM)	relative viability (VE-821 + Vorinostat; first compound 0.8 µM)	relative viability (VE-821 + Vorinostat; first compound 2.53 µM)	relative viability (VE-821 + Vorinostat; first compound 8 µM)	relative viability (VE-821 + Olaparib; first compound 0.08 µM)	relative viability (VE-821 + Olaparib; first compound 0.253 µM)	relative viability (VE-821 + Olaparib; first compound 0.8 µM)	relative viability (VE-821 + Olaparib; first compound 2.53 µM)	relative viability (VE-821 + Olaparib; first compound 8 µM)	relative viability (VE-821 + AZD7762; first compound 0.08 µM)	relative viability (VE-821 + AZD7762; first compound 0.253 µM)	relative viability (VE-821 + AZD7762; first compound 0.8 µM)	relative viability (VE-821 + AZD7762; first compound 2.53 µM)	relative viability (VE-821 + AZD7762; first compound 8 µM)
NCI-H650	0.434	0.413	0.353	0.392	0.488	0.443	0.403	0.395	0.471	0.409	0.44	0.432	0.422	0.482	0.439	0.873	0.954	0.992	0.836	1.04
NCI-H647	0.586	0.424	0.63	0.511	0.654	0.556	0.689	0.646	0.469	0.287	0.504	0.546	0.413	0.184	0.101	0.46	0.235	–	0.217	0.0695
NCI-H3122	0.986	0.994	0.994	1.09	0.992	1.11	1.01	0.978	1.13	0.908	0.622	0.495	0.432	0.378	0.221	1.05	0.857	0.97	0.654	0.545
PC-3 [JPC-3]	0.858	0.548	0.802	0.924	0.896	0.815	0.734	0.858	0.883	0.664	1.19	1.15	1.24	1.12	0.958	0.882	0.728	0.99	0.798	0.62
NCI-H1355	0.716	0.632	0.569	0.611	0.648	0.819	0.61	0.663	0.72	0.57	0.822	0.719	0.66	0.716	0.351	0.773	0.621	0.499	0.539	0.195
NCI-H838	0.696	0.715	0.727	0.743	0.733	0.755	0.688	0.697	0.69	0.542	0.866	0.856	0.765	0.638	0.365	0.944	0.859	0.771	0.727	0.692
